≈ marks a conversion by molar mass, not a printed value.
How the values were obtained:
[1] = tested on: DNA-PK autophosphorylation in cancer cell lines; conditions: background statement, no values; cited from earlier work
[2] = target: DNA-dependent protein kinase (DNA-PK) (Homo sapiens, UniProt P78527); conditions: background statement, no values; cited from earlier work
[3] = Thermal behaviour by DSC and TGA; format: physicochemical; conditions: DSC and TGA profiles
Method: By contrast, the amorphous material decomposes at 170° C. (FIG. 2). The crystalline material therefore lends itself to further processing that involves high temperatures, such as hot melt extrusion and melt granulation.
• Powder X-ray diffractions (XRPD) were obtained by standard techniques as described in the European Pharmacopeia 7th Edition chapter 2.9.33 (Cu-Kai radiation, λ=1.5406 Å, Stoe StadiP 611 KL transmission diffractometer, ambient temperature); and in particular • For the amorphous form: The XRPD measurement was performed in transmission geometry with Cu-Kα1 radiation on a Stoe StadiP 611 diffractometer equipped with Mythen1K Si-strip detector (PSD). Approximately 5-20 mg of the sample were prepared on a combinatorial 96-well-plate sample holder comprising a mostly amorphous Kapton® foil on the bottom of the wells. Measurement was carried out by setting following parameters: • angular range: −36°−36 °2θ folded to 0-36 °2θ • angular resolution: 0.03 °2θ • PSD step with: 4 °2θ • measurement time: 30 s/PSD-step • generator settings: 40 mA, 40 kV • For the crystalline Form I: The measurement was performed in transmission geometry with Cu-Kα1 radiation on a Stoe StadiP 611 diffractometer equipped with Mythen1K Si-strip detector (PSD). Approximately 10-100 mg of the sample were prepared between amorphous films. […]

[4] = Water vapour sorption isotherm (DVS, 25° C.); format: physicochemical; conditions: for water uptake / hygroscopic behaviour (in words): water vapour sorption isotherm, FIG. 3
Excerpt: Form I can therefore be classified acc. to Ph. Eur. Criteria (section 5.11.) as not hygroscopic. The max. water uptake level (Δmmax at 98% rh) of Form I is <1% m/m. […] This non-hygroscpopic behaviour of Form I is advantageous both in case of using the material as a starting material, as it readily lends itself to storage, as well as using it “as is” in a pharmaceutical dosage form.
• Powder X-ray diffractions (XRPD) were obtained by standard techniques as described in the European Pharmacopeia 7th Edition chapter 2.9.33 (Cu-Kai radiation, λ=1.5406 Å, Stoe StadiP 611 KL transmission diffractometer, ambient temperature); and in particular • For the amorphous form: The XRPD measurement was performed in transmission geometry with Cu-Kα1 radiation on a Stoe StadiP 611 diffractometer equipped with Mythen1K Si-strip detector (PSD). Approximately 5-20 mg of the sample were prepared on a combinatorial 96-well-plate sample holder comprising a mostly amorphous Kapton® foil on the bottom of the wells. Measurement was carried out by setting following parameters: • angular range: −36°−36 °2θ folded to 0-36 °2θ • angular resolution: 0.03 °2θ • PSD step with: 4 °2θ • measurement time: 30 s/PSD-step • generator settings: 40 mA, 40 kV • For the crystalline Form I: The measurement was performed in transmission geometry with Cu-Kα1 radiation on a Stoe StadiP 611 diffractometer equipped with Mythen1K Si-strip detector (PSD). Approximately 10-100 mg of the sample were prepared between amorphous films. Measurement was carried out by setting following parameters: • angular range: 1°-41 °2θ • angular resolution: 0.015 °2θ • PSD step with: 0.49 °2θ • measurement time: 15 s/PSD-step • generator settings: 40 mA, 40 kV • DSC: • For the amorphous form: • Temperature modulated DSC (TOPEM®) was acquired on a Mettler-Toledo heat-flux Differential Scanning Calorimeter DSC 1 system. Approximately 0.5 mg sample amount were weighed accurately in a 40 μl Aluminium pan which was hermetically closed by a lid. The scan was carried out from 0° C. to 250° C. with a linear heating rate of 2 K/min, overlapped by a non-linear puls-modulated temperature programme with a pulse height of ±0.5 K and a stochastic pulse width from 15 s (min) to 45 s (max). Nitrogen purge gas at 50 mL/min was used. • For crystalline Form I: • DSC measurement was acquired on Mettler-Toledo heat-flux Differential Scanning Calorimeter system DSC 821e. Approximately 1-5 mg sample amount were weighed accurately in a 40 μl Aluminium pan with pierced lid. The scan was carried out from 25° C. to 350° C. with a linear heating rate of 5 K/min and a nitrogen purge gas at 50 mL/min. • TGA: • Sample was investigated on a Mettler-Toledo Thermogravimetric Analyser TGA 851 with autosampler, using a nitrogen inert gas atmosphere (flow 50 mL/min). Approximately 5-20 mg sample amount were weighed accurately in a 100 μl Aluminium pan and hermetically closed by Aluminium lids. Just before insertion to the oven the lid was pierced by a needle of the autosampler system. Scans were carried out from 25° C. to 350° C. at 5 K/min. The result was baseline-corrected with a blank run from an empty 100 μl Aluminium pan of the same type, using the identical temperature profile. • Water Vapour Sorption Isotherm: • Approximately 1-40 mg sample amount were weighed accurately into a 100 μl Al pan and hung into the sample position of the DVS instrument with microbalance and incubator (DVS-Intrinsic; Surface Measurement Systems, SMS). […]

[5] = Solubility measurements in biorelevant media (24 h shake, HPLC); format: physicochemical

SMILES | inhibition of DNA-PK autophosphorylation (in words) [1] | inhibition of DNA-PK activity (in words) [2] | melting/decomposition temperature (thermal stability) [3] | max. water uptake level (Δmmax at 98% rh) ([4]; 98% rh, 25° C.) | hygroscopicity classification acc. to Ph. Eur. criteria (section 5.11.) ([4]; dm (80% rh−40% rh), 25° C.) | water uptake levels ([4]; relative humidity range 40-80% rh, 25° C.) | solubility at 24 h ([5]; FaSSIF (fasted state simulated intestinal fluid), pH 6.5, thermodynamic from solid, FaSSIF, pH of medium 6.5, 37 °C) | solubility at 24 h ([5]; FeSSIF (fed state simulated intestinal fluid), pH 5, thermodynamic from solid, FeSSIF, pH of medium 5.0, 37 °C) | solubility at 24 h ([5]; SGF (simulated gastric fluid without pepsin), pH 1.2, simulated gastric fluid, thermodynamic from solid, SGF, pH of medium 1.2, 37 °C) | water uptake / hygroscopic behaviour (in words) [4] | water uptake / hygroscopic behaviour (in words) ([4]; listed as amorphous solid form)
COc1ccc([C@@H](O)c2cc(-c3ncnc4cc(N5CCOCC5)ccc34)c(F)cc2Cl)nn1 [(S)-[2-chloro-4-fluoro-5-(7-morpholin-4-yl-quinazolin-4-yl)phenyl]-(6-methoxy-pyridazin-3-yl)-methanol] | potent inhibition | potent and selective inhibitor | – | – | – | – | – | – | – | – | –
COc1ccc([C@@H](O)c2cc(-c3ncnc4cc(N5CCOCC5)ccc34)c(F)cc2Cl)nn1 [Form I, (S)-[2-chloro-4-fluoro-5-(7-morpholin-4-yl-quinazolin-4-yl)phenyl]-(6-methoxy-pyridazin-3-yl)-methanol] | – | – | above 200 °C | < 1 % m/m | not hygroscopic (dm (80% rh−40% rh)<0.2 wt %: not hygroscopic) | < 1 % m/m | 3 µg/mL (≈ 6.23 µM) | 17 ± 1 µg/mL (≈ 35.3 µM) | 891 ± 33 µg/mL (≈ 1850 µM) | – | –
COc1ccc([C@@H](O)c2cc(-c3ncnc4cc(N5CCOCC5)ccc34)c(F)cc2Cl)nn1 [amorphous material, (S)-[2-chloro-4-fluoro-5-(7-morpholin-4-yl-quinazolin-4-yl)phenyl]-(6-methoxy-pyridazin-3-yl)-methanol] | – | – | 170 °C | – | – | – | – | – | – | significant water uptake | hygroscopic
